Measured values from US20090068143A1, “ORALLY EFFECTIVE C[…]” (priority 2005, published 2009).
Marks after values point to notes of the source that are not given here.

How the values were obtained:
[1] = Stability in aqueous solutions; assay type: physicochemical; conditions: 2 mg/ml in phosphate buffer (pH 7.0), 4° C.
Description: Stability of compounds of the invention in aqueous solutions was compared. Compounds were dissolved in buffer phosphate solutions and their concentration monitored using HPLC and spectrophotometer methodology. While compound 18F at concentration of 2 mg/ml in phosphate buffer (pH 7.0) was stable for at least 3 months at 4° C., compound 18B at concentration of 95 μg/ml in citrate buffer (pH 7.1) readily hydrolyzed in less than 24 hours at 4° C. Therefore, compounds that were designed following the same rational yielded unexpectedly divergent outcome, for instance in connection with stability in aqueous solutions.

CB1 = test: Real-time RT-PCR gene expression in CNS of MOG induced EAE: CB1; assay type: in vivo, mouse; conditions: 40 mg/kg p.o., day 31; over naive animals, normalized to cyclophilin
Description: (§1) Total RNA is prepared using SV total RNA isolation system (Promega). The brains and spinal cords, which were removed on day 31 from five animals treated with vehicle (i.e. untreated) or 40 mg/kg p.o. of compound 18F (i.e. treated) in the MOG-induced EAE study, were homogenized in lysis buffer. The lysates were transferred to an RNA isolation column, treated with DNAse, washed and eluted according to kit instructions. RNA concentrations were determined using GeneQuant II (Pharmacia-Amersham). Complementary DNA (cDNA) was synthesized from total RNA using […] II reverse transcriptase (Life Technologies). […] Quantitative real-time RT-PCR included 1 μl of the cDNA, 300 nM of the appropriate forward and reverse primers (according to the gene monitored) and 7.5 μl of the reaction mix containing buffer, nucleotides, Taq polymerase and SYBER green (SYBER Green master mix, Applied Biosystems), in a total reaction volume of 15 μl. […] During each annealing step, the amount of the amplified product was measured by the fluorescence of the double strand DNA binding dye, SYBER Green. The cycle of threshold (CT), representing the PCR cycle at which an increase in fluorescence above a baseline signal can be first detected, was determined for each product. […] Results were expressed as fold increase of gene expression in treated or untreated animals above the naive animals. […]

IFN-γ = test: Real-time RT-PCR gene expression in CNS of MOG induced EAE: IFN-γ; assay type: in vivo, mouse; conditions: 40 mg/kg p.o., day 31, over naive animals
Description: as §1

IL-1β = test: Real-time RT-PCR gene expression in CNS of MOG induced EAE: IL-1β; assay type: in vivo, mouse
Description: Total RNA is prepared using SV total RNA isolation system (Promega). The brains and spinal cords, which were removed on day 31 from five animals treated with vehicle (i.e. untreated) or 40 mg/kg p.o. of compound 18F (i.e. treated) in the MOG-induced EAE study, were homogenized in lysis buffer. The lysates were transferred to an RNA isolation column, treated with DNAse, washed and eluted according to kit instructions. RNA concentrations were determined using GeneQuant II (Pharmacia-Amersham). Complementary DNA (cDNA) was synthesized from total RNA using […] II reverse transcriptase (Life Technologies). 2 μg of total RNA were combined with an oligo (dT)15 primer, 0.5 mM dNTP mix, 8 units of reverse transcriptase and other reaction components up to a final volume of 20 μl, according to the kit instructions. The reaction mixture was incubated at 42° C. for 45 min and inactivated at 70° C. for 15 minutes. Quantitative real-time RT-PCR included 1 μl of the cDNA, 300 nM of the appropriate forward and reverse primers (according to the gene monitored) and 7.5 μl of the reaction mix containing buffer, nucleotides, Taq polymerase and SYBER green (SYBER Green master mix, Applied Biosystems), in a total reaction volume of 15 μl. Gene amplification was obtained using the GeneAmp 5700 sequence detection system (Applied Biosystems). […] During each annealing step, the amount of the amplified product was measured by the fluorescence of the double strand DNA binding dye, SYBER Green. The cycle of threshold (CT), representing the PCR cycle at which an increase in fluorescence above a baseline signal can be first detected, was determined for each product. […] Results were expressed as fold increase of gene expression in treated or untreated animals above the naive animals. […]
The results expressed as folds gene expression over naive animals (following normalization to Cyclophilin) are compiled in the following table. […] Statistical significance was analyzed by unpaired two-tailed t-test and one asterisk (*) indicates statistical significance of p<0.05, whereas ** indicates statistical significance of p<0.01.

TNF-α = test: Real-time RT-PCR gene expression in CNS of MOG induced EAE: TNF-α; assay type: in vivo, mouse; conditions: 40 mg/kg p.o., day 31; over naive animals
Description: as §1

F4/80 = test: Real-time RT-PCR gene expression in CNS of MOG induced EAE: F4/80; assay type: in vivo, mouse; conditions: 40 mg/kg p.o., day 31; over naive animals
Description: as §1

iNOS [2] = test: iNOS gene expression in LPS activated RAW 264.7 macrophages (real-time RT-PCR); assay type: cell-based, mouse
Description: (§2) RAW 264.7 macrophages, a mouse cell line (ATCC # TIB 71), were grown in Dulbecco's modified Eagle's medium (DMEM) with 4 mM L-glutamine adjusted to contain 1.5 g/L sodium bicarbonate, 4.5 g/L glucose, and 10% heat inactivated fetal bovine serum. Cells were grown in tissue culture flasks and seeded at appropriate density into 6 wells tissue culture plates. Four million Raw cells in half a milliliter were stimulated with 1 μg/ml Lipopolysaccharide E. coli 055:B5 (DIFCO Laboratories). The mouse macrophages were pre-treated for one hour with controls or 10 μM of test compounds, and later on activated with LPS. RNA samples were extracted from the cells 3 hrs after activation and iNOS gene expression levels were analyzed by real-time RT-PCR as previously described. For western blot analysis, compounds were tested at 1, 5 and 10 μM and cells were harvested 24 hrs after LPS stimulation. Supernatant were collected and NO secretion was analyzed using ELISA. Cells were washed 3 times with cold PBS, scrapped and lyzed in 100 μl cell lysis buffer containing 20 mM HEPES, pH 7.6, 150 mM NaCl, 1.5 mM MgCl2, 0.2 mM EDTA, 1% Triton X-100, 10% glycerol, 1 mM DTT, 1 mM PMSF, 10 μg/ml aprotinin. 5 µg/ml leupeptin, 10 mM p-nitrophenyl phosphate, 100 mM β-glycerophosphate, 1 mM sodium fluoride, and 0.1 μM sodium orthovanadate. Cells were lyzed on ice for 10 minutes before further processing.
The results of this experiment are expressed as fold activation of iNOS over non-activated macrophages, after normalization to cyclophilin A expression. Compound 18A inhibits 63% of iNOS gene expression, and compounds 18B, 18E and 18F inhibit 55%, 25% and 100% respectively. […] This surprising observation strengthen the fact that compounds of the invention, though chemically related, have distinct and unexpected properties.

iNOS [3] = test: iNOS protein expression in activated macrophages (western blot); assay type: cell-based, mouse; conditions: 1, 5 and 10 μM, 24 hrs after LPS stimulation
Description: as §2, with “Cells were washed 3 times with cold PBS, scrapped and lyzed in 100 μl cell lysis buffer containing 20 mM HEPES, pH 7.6, 150 mM NaCl, 1.5 mM MgCl2, 0.2 mM EDTA, 1% Triton X-100, 10% glycerol, 1 mM DTT, 1 mM PMSF, 10 μg/ml aprotinin. 5 µg/ml leupeptin, 10 mM p-nitrophenyl phosphate, 100 mM β-glycerophosphate, 1 mM sodium fluoride, and 0.1 μM sodium orthovanadate. Cells were lyzed on ice for 10 minutes before further processing.” left out
To assess correlation between gene expression and protein expression, protein extracts were prepared from the various treated activated macrophages. […] Primary antibodies against cyclophilin A were used as control (Upstate, Cat# 07-313), and the amount of iNOS was assessed using NOS2 (C11) Santa Cruz antibodies (Cat# SC-7271) were hybridized for 2 hours at room temperature. […]

In the case of CCCCCCC(C)(C)c1cc(O)c([C@H]2CC(=O)C3CC2C3(C)C)c(OC(=O)/C=C/C(=O)O)c1 (single isomer, unassigned; (-)) [Compound 18F, (−)-4-{4-[1,1-Dimethylheptyl]-2-fumarate-6-hydroxy-phenyl}-6,6-dimethyl-bicyclo[3.1.1]heptan-2-one], the “time stable in solution” value [1] is reported as “at least 3 months”, the “Fold gene expression CB1, Brain, Treated” value (CB1) is reported as 1 fold and the “Fold gene expression CB1, Spinal Cord, Treated” value (CB1) is reported as 1 fold. For the same compound, the “Fold gene expression IFN-γ, Spinal Cord, Treated” value (IFN-γ) was 3 fold, the “Fold gene expression IFN-γ, Brain, Treated” value (IFN-γ; untreated −9) was 1* fold and the “Fold gene expression IL-1β, Brain, Treated” value (IL-1β; 40 mg/kg p.o., day 31, over naive animals, untreated 5.5) was 3* fold. For the same compound, the “Fold gene expression IL-1β, Spinal Cord, Treated” value (IL-1β; 40 mg/kg p.o., day 31, over naive animals, untreated 11) was 4* fold, the “IL-1β overexpression in brain and spinal cord” value (IL-1β; treated p.o., untreated 5 to 11-fold) was 3-4 fold and the “Fold gene expression TNF-α, Brain, Treated” value (TNF-α) was 2.5 fold. The “Fold gene expression TNF-α, Spinal Cord, Treated” value (TNF-α) was 15 fold, the “Fold gene expression F4/80, Brain, Treated” value (F4/80) was 1.5 fold and the “Fold gene expression F4/80, Spinal Cord, Treated” value (F4/80) was 5.5 fold. For the same compound, the “effect of CB1 or CB2 antagonists on iNOS inhibiting activity” value (iNOS [2]; 5 μM of SR-141716 and SR-144528) was “only blocked by CB2 antagonists”, the “inhibition of iNOS gene expression” value (iNOS [2]; 10 μM, 1 h pre-treatment, 3 hrs after LPS activation) was 100% and the “iNOS protein band (western blot)” value (iNOS [3]) was “clear dose dependent disappearance of iNOS protein band”.
